Test results as given in US9326973B2, “Hepatitis C virus inhibitors” (priority 2012, dated 2016).

system: HCV replicon, genotype-1a variant with glutamine 30 changed to glutamate in the NS5A protein; assay: microbe, parasite or virus in culture; type: cell-based, HCV genotype 1a; settings: HCV replicon genotype 1a Q30E (Q→E) variant; test compound titrated with an NS5A-targeting compound (BMS-790052 fixed at 200 nM); ranking of synergist activity
Excerpt: The NS5A synergistic inhibitory effect of test compounds can be determined using various amounts of an NS5A-targeting compound with titration of a second compound of interest. […] In one embodiment, the HCV genotype strain can be genotype 1a containing a change at amino acid 30 of the NS5A protein consisting of glutamine to glutamate. The test compound can be chosen from compounds listed above or from others present in the literature.

| SMILES | Fold-Synergistic 1a (Q30E) [fold] |
| --- | --- |
| CC(C)(C)[C@H](NC(=O)C1CC(=O)c2ccccc21)c1nc(-c2ccc(-c3ccc(-c4c[nH]c([C@@H](NC(=O)C5CC(=O)c6ccccc65)C(C)(C)C)n4)cc3)cc2)c[nH]1 (stereo partly drawn) [Compound S-257] | >10 |
| CC(C)(C)OC(=O)N1CCC[C@@H]1C(=O)N[C@H](c1nc(-c2ccc(-c3ccc(-c4c[nH]c([C@@H](NC(=O)[C@H]5CCCN5C(=O)OC(C)(C)C)C(C)(C)C)n4)cc3)cc2)c[nH]1)C(C)(C)C [Compound W-87] | >100 |
| CC(C)N(C(=O)C(=O)N[C@H](c1nc(-c2ccc(-c3ccc(-c4c[nH]c([C@@H](NC(=O)C(=O)N(C(C)C)C5CC5)C5(C)CC5)n4)cc3)cc2)c[nH]1)C1(C)CC1)C1CC1 [Compound W-58] | >100 |
| O=C(c1cccc2cnccc12)N1CCC[C@H]1c1ncc(-c2ccc(-c3ccc(-c4cnc([C@@H]5CCCN5C(=O)c5cccc6cnccc56)[nH]4)cc3)cc2)[nH]1 [Compound S-203] | <10 |
| CC1([C@H](NC(=O)[C@H]2C[C@@H]3CC(F)(F)C[C@@H]3C2)c2nc(-c3ccc(-c4ccc(-c5c[nH]c([C@@H](NC(=O)[C@H]6C[C@@H]7CC(F)(F)C[C@@H]7C6)C6(C)CC6)n5)cc4)cc3)c[nH]2)CC1 [Compound P-140] | >100 |
| CC(C)(C)C(=O)N1C[C@H](F)C[C@H]1C(=O)N[C@H](c1nc(-c2ccc(-c3ccc(-c4c[nH]c([C@@H](NC(=O)[C@@H]5C[C@@H](F)CN5C(=O)C(C)(C)C)C(C)(C)C)n4)cc3)cc2)c[nH]1)C(C)(C)C [Compound W-105] | >100 |
| CC1(C(=O)N[C@H](c2nc(-c3ccc(-c4ccc(-c5c[nH]c([C@@H](NC(=O)C6(C)CC6)C(C)(C)C)n5)cc4)cc3)c[nH]2)C(C)(C)C)CC1 [Compound L-45] | >100 |
| CC(C)CCC(=O)N1CCC[C@H]1c1ncc(-c2ccc(-c3ccc(-c4cnc([C@@H]5CCCN5C(=O)CCC(C)C)[nH]4)cc3)cc2)[nH]1 [Compound S-174] | <10 |
| COC(=O)C1(C(=O)N[C@H](c2nc(-c3ccc(-c4ccc(-c5c[nH]c([C@@H](NC(=O)C6(C(=O)OC)CC6)C(C)(C)C)n5)cc4)cc3)c[nH]2)C(C)(C)C)CC1 [Compound W-124] | >100 |
| O=C(N1CCC[C@H]1c1ncc(-c2ccc(-c3ccc(-c4cnc([C@@H]5CCCN5C(=O)C5(O)CCC(F)(F)CC5)[nH]4)cc3)cc2)[nH]1)C1(O)CCC(F)(F)CC1 [Compound P-185] | >100 |
| CC(C)(C)[C@H](NC(=O)C1(OC(=O)N2CCCCC2)CC1)c1nc(-c2ccc(-c3ccc(-c4c[nH]c([C@@H](NC(=O)C5(OC(=O)N6CCCCC6)CC5)C(C)(C)C)n4)cc3)cc2)c[nH]1 [Compound L-28] | >100 |
| O=C(N[C@H](c1nc(-c2ccc(-c3ccc(-c4c[nH]c([C@@H](NC(=O)C(=O)N5CCC(F)(F)CC5)C5CC5)n4)cc3)cc2)c[nH]1)C1CC1)C(=O)N1CCC(F)(F)CC1 [Compound L-37] | >100 |
| O=C(Cc1ccncc1)N1CCC[C@H]1c1ncc(-c2ccc(-c3ccc(-c4cnc([C@@H]5CCCN5C(=O)Cc5ccncc5)[nH]4)cc3)cc2)[nH]1 [Compound S-150] | <10 |
| O=C(N[C@H](c1nc(-c2ccc(-c3ccc(-c4c[nH]c([C@@H](NC(=O)C5CCC(F)(F)CC5)C5CC5)n4)cc3)cc2)c[nH]1)C1CC1)C1CCC(F)(F)CC1 [Compound L-90] | >100 |
| O=C(C1Cc2ccccc2O1)N1CCC[C@H]1c1ncc(-c2ccc(-c3ccc(-c4cnc([C@@H]5CCCN5C(=O)C5Cc6ccccc6O5)[nH]4)cc3)cc2)[nH]1 (stereo partly drawn) [Compound S-157] | >10 |
| CC(C)(C)OC(=O)N1CC(C)(C)OC[C@H]1C(=O)N[C@H](c1nc(-c2ccc(-c3ccc(-c4c[nH]c([C@@H](NC(=O)[C@@H]5COC(C)(C)CN5C(=O)OC(C)(C)C)C(C)(C)C)n4)cc3)cc2)c[nH]1)C(C)(C)C [Compound L-60] | >100 |
| C[C@@H](OC(=O)NC1(C(=O)N[C@H](c2nc(-c3ccc(-c4ccc(-c5c[nH]c([C@@H](NC(=O)C6(NC(=O)O[C@H](C)C(F)(F)F)CC6)C6(C)CC6)n5)cc4)cc3)c[nH]2)C2(C)CC2)CC1)C(F)(F)F [Compound L-42] | >100 |
| CC(C)CC(=O)NC1(c2nc(-c3ccc(-c4ccc(-c5c[nH]c(C6(NC(=O)CC(C)C)Cc7ccccc7C6)n5)cc4)cc3)c[nH]2)Cc2ccccc2C1 [Compound N-19] | <10 |
| CC(C)CC(=O)NC1(c2nc(-c3ccc(-c4ccc(-c5c[nH]c(C6(NC(=O)CC(C)C)CCCC6)n5)cc4)cc3)c[nH]2)CCCC1 [Compound N-12] | <10 |
| CC(C)(C)[C@H](NC(=O)C1(C2(O)CCC(F)(F)CC2)CC1)c1nc(-c2ccc(-c3ccc(-c4c[nH]c([C@@H](NC(=O)C5(C6(O)CCC(F)(F)CC6)CC5)C(C)(C)C)n4)cc3)cc2)c[nH]1 [Compound P-146] | >100 |

| SMILES | Fold-Synergistic 1a (Q30E) [fold] |
| --- | --- |
| N#CC1(C(=O)N2CCC[C@H]2c2ncc(-c3ccc(-c4ccc(-c5cnc([C@@H]6CCCN6C(=O)C6(C#N)CC6)[nH]5)cc4)cc3)[nH]2)CC1 [Compound S-194] | <10 |
| CC(C)(C)OC(=O)N1C[C@@H](O)C[C@H]1C(=O)N[C@H](c1nc(-c2ccc(-c3ccc(-c4c[nH]c([C@@H](NC(=O)[C@@H]5C[C@H](O)CN5C(=O)OC(C)(C)C)C(C)(C)C)n4)cc3)cc2)c[nH]1)C(C)(C)C [Compound W-98] | >100 |
| CC(C)CC(=O)N[C@H](c1nc(-c2ccc3cc(-c4ccc(-c5cnc([C@@H](NC(=O)CC(C)C)C(C)C)[nH]5)cc4)ccc3c2)c[nH]1)C(C)C [Compound P-2] | >10 |
| C#CCCC(=O)N1CCC[C@H]1c1ncc(-c2ccc(-c3ccc(-c4cnc([C@@H]5CCCN5C(=O)CCC#C)[nH]4)cc3)cc2)[nH]1 [Compound S-179] | <10 |
| O=C(C1CCC1)N1CCC[C@H]1c1ncc(-c2ccc(-c3ccc(-c4cnc([C@@H]5CCCN5C(=O)C5CCC5)[nH]4)cc3)cc2)[nH]1 [Compound S-162] | <10 |
| CC(C)[C@H](NC(=O)c1cc(Cl)ccc1F)c1nc(-c2ccc(-c3ccc(-c4c[nH]c([C@@H](NC(=O)c5cc(Cl)ccc5F)C(C)C)n4)c(F)c3)cc2)c[nH]1 [Compound N-88] | >100 |
| CC(C)CC(=O)N[C@H](c1ncc(-c2ccc(C#Cc3ccc(-c4cnc([C@@H](NC(=O)CC(C)C)C(C)C)[nH]4)cc3)cc2)[nH]1)C(C)C [Compound N-6] | >10 |
| CC(C)(C)OC(=O)NC1(C(=O)N[C@H](c2nc(-c3ccc(-c4ccc(-c5c[nH]c([C@@H](NC(=O)C6(NC(=O)OC(C)(C)C)CCOCC6)C(C)(C)C)n5)cc4)cc3)c[nH]2)C(C)(C)C)CCOCC1 [Compound W-132] | >100 |
| CC(C)(C)[C@H](NC(=O)C(F)(F)C(O)c1ccccc1)c1nc(-c2ccc(-c3ccc(-c4c[nH]c([C@@H](NC(=O)C(F)(F)C(O)c5ccccc5)C(C)(C)C)n4)cc3)cc2)c[nH]1 (stereo partly drawn) [Compound P-168] | >100 |
| CC(C)[C@H](NC(=O)C1(N2CCC(F)(F)CC2)COC1)c1nc(-c2ccc(-c3ccc(-c4c[nH]c([C@@H](NC(=O)C5(N6CCC(F)(F)CC6)COC5)C(C)C)n4)cc3)cc2)c[nH]1 [Compound W-64] | >100 |
| CC(C)(CF)C(=O)N[C@H](c1nc(-c2ccc(-c3ccc(-c4c[nH]c([C@@H](NC(=O)C(C)(C)CF)C5(C)CC5)n4)cc3)cc2)c[nH]1)C1(C)CC1 [Compound P-143] | >100 |
| CC(C)(C)[C@H](NC(=O)[C@H]1[C@@H]2COC[C@@H]21)c1nc(-c2ccc(-c3ccc(-c4c[nH]c([C@@H](NC(=O)[C@H]5[C@@H]6COC[C@@H]65)C(C)(C)C)n4)cc3)cc2)c[nH]1 [Compound L-67] | >100 |
| CN(C(=O)C(C)(C)C(=O)N[C@H](c1nc(-c2ccc(-c3ccc(-c4c[nH]c([C@@H](NC(=O)C(C)(C)C(=O)N(C)C5CC5)C(C)(C)C)n4)cc3)cc2)c[nH]1)C(C)(C)C)C1CC1 [Compound W-140] | <10 |
| Cc1ccc(C(F)(F)C(=O)N[C@H](c2nc(-c3ccc(-c4ccc(-c5c[nH]c([C@@H](NC(=O)C(F)(F)c6ccc(C)cc6)C(C)(C)C)n5)cc4)cc3)c[nH]2)C(C)(C)C)cc1 [Compound S-288] | >100 |
| CC(C)(C(=O)N[C@H](c1nc(-c2ccc(-c3ccc(-c4c[nH]c([C@@H](NC(=O)C(C)(C)C(=O)N5CC(O)C5)C(C)(C)C)n4)cc3)cc2)c[nH]1)C(C)(C)C)C(=O)N1CC(O)C1 [Compound W-144] | >10 |
| O=C(C1CCCC1)N1CCC[C@H]1c1ncc(-c2ccc(-c3ccc(-c4cnc([C@@H]5CCCN5C(=O)C5CCCC5)[nH]4)cc3)cc2)[nH]1 [Compound S-164] | <10 |
| CC(C)N(C(=O)OC1(C(=O)N[C@H](c2nc(-c3ccc(-c4ccc(-c5c[nH]c([C@@H](NC(=O)C6(OC(=O)N(C(C)C)C(C)C)CC6)C6(C)CC6)n5)cc4)cc3)c[nH]2)C2(C)CC2)CC1)C(C)C [Compound L-39] | >100 |
| CC(C)(C)OC(=O)N[C@H]1CCC[C@@H]1C(=O)N[C@H](c1nc(-c2ccc(-c3ccc(-c4c[nH]c([C@@H](NC(=O)[C@H]5CCC[C@@H]5NC(=O)OC(C)(C)C)C(C)(C)C)n4)cc3)cc2)c[nH]1)C(C)(C)C [Compound W-9] | >100 |
| CCC(=O)N1CCC[C@H]1c1ncc(-c2ccc(-c3ccc(-c4cnc([C@@H]5CCCN5C(=O)CC)[nH]4)cc3)cc2)[nH]1 [Compound S-108] | <10 |
